As usually defined, the Km is the substrate concentration at which the rate is half of its maximum. By LD50 is commonly meant the dose at which mortality reaches 50%. A word on the IC50: it is the concentration needed to halve the response being measured.

One data set can be described thus: in vitro. In kind it is in vitro ADME, human. The following applies: for Vmax / Km: conversion of profenofos to BCP; for Km: pH 7.4. The procedure: Incubations of profenofos with rat and human liver microsomes, liver cytosol and plasma were performed to quantify in vitro rates of BCP formation. Conditions were optimized to be linear for metabolite formation with regard to incubation time and microsomal, cytosolic and plasma protein concentration (data not shown). The final incubations were carried out in 100 mM Tris HCl (pH 7.4, 37 °C) containing (final concentrations) 5 mM MgCl2, 2 mM CaCl2 [to stimulate PON1 activity (Carr et al. [2015])], 2 mM NADPH (cofactor to also include CYP-mediated metabolism), enzyme preparation (final concentration 2 mg/ml for human liver microsomes and cytosol and 4.4 mg/ml for human plasma; 0.5 mg/ml for rat microsomes and cytosol and 1.65 mg/ml for rat plasma) and profenofos (at final concentrations ranging from 1 to 100 μM, added from 100 times concentrated stock solutions in DMSO). Control incubations were performed in the absence of microsomes, cytosol or plasma. After 2 min pre-incubation, the reaction was initiated by adding the substrate and mixtures were incubated for 2 min in a 37 °C water bath. The total volume of the incubation mixtures was 200 μl. The reaction was terminated by the addition of 50 μl ice cold ACN and samples were kept on ice. The mixture was centrifuged at 14,000g for 20 min at 4 °C and the supernatant was analyzed using UPLC-UV.
All samples from incubations were analyzed using a Waters Acquity UPLC H class system that consisted of a quaternary solvent manager, a sample manager, and a photodiode array (PDA) detector, equipped with a Water Acquity UPLC® BEH C18 column (1.7 μm, 2.1 × 50 mm) and Waters Xbridge UPLC® BEH C18 pre-column (2.5 μM, 2.1 × 5 mm). The temperature of the column was kept at 40 °C and the auto sampler at 10 °C during the UPLC analysis. The mobile phases used for the analysis consisted of (A) 0.1% TFA in nanopure water and (B) 100% ACN. A gradient elution at a flow rate of 0.6 ml/min was applied for the analysis with the initial condition of 100% A:0% B (v/v), changing in a linear way to 0% A:100% B from 0 to 6 min, which was maintained for 30 s, and then changed back to the initial conditions in 30 s, which were maintained for 1 min. The injection volume for each sample was 3.5 μl.
Under these conditions, the retention times of profenofos and BCP were 4.76 and 3.37 min, respectively. The amounts of profenofos and BCP were quantified by integrating the peak areas at 237 nm using calibration curves that were prepared using commercially available standards.
Kinetic parameters including the apparent maximum velocity (Vmax) and the apparent Michaelis–Menten constant (Km) for BCP formation were obtained by fitting the data for the substrate concentration-dependent rate of conversion (expressed in nmol/min/mg protein) using GraphPad Prism 5, version 5.04 (San Diego, California, USA) to the standard Michaelis–Menten equation: V=Vmax∗S/(Km+S) in which the S represents the concentration of substrate, expressed in μM, V and Vmax the velocity and the maximum velocity of the reaction, respectively, expressed in nmol/min/mg protein, and Km the apparent Michaelis–Menten constant, expressed in μM. The kinetic parameter values for conversion of profenofos to BCP in the liver microsomes, liver cytosol and plasma were determined. To determine the catalytic efficiency, Vmax was divided by the Km.

The next data set has as its system rat. To be noted: oral administration, ref JMPR [2007]; cited from earlier work.
The test system of another data set is brain cholinesterase. The following applies: based on NOAEL in a dog study, brain cholinesterase inhibition; ref EFSA [2019]; cited from earlier work.
The target of a further data set is AChE (Homo sapiens, UniProt P22303). Briefly: In vitro inhibition of human recombinant AChE (Ellman). The following applies: 15-min incubation at 37 °C. Type of data set: biochemical. Also on record: purchased Sigma-Aldrich. Here is the method: To perform reverse dosimetry of in vitro AChE inhibition by profenofos, first the in vitro AChE activity in the absence or presence of increasing concentrations of profenofos was determined. For humans, commercially available recombinant AChE was used. For rats, no commercially available recombinant AChE was available, so rat AChE was obtained from rat blood as described below.
AChE inhibition was determined following the protocol of Ellman et al. ([1961]) as modified by Chambers and Chambers ([1989]). The concentration of acetylthiocholine and recombinant AChE were optimized to be linear for metabolite formation (data not shown). Human recombinant AChE was dissolved in 0.1 M sodium phosphate (pH 7.4) containing 1 mg/ml BSA (which was present to stabilize human recombinant AChE (Rosenfeld and Sultatos [2006])) to reach an enzyme concentration of 200 U/ml. Subsequently, the AChE enzyme solution was further diluted with 0.1 M sodium phosphate (pH 7.4) containing 1 mg/ml BSA to a working concentration of 1 U/ml. […] Subsequently, the time-dependent increase in absorbance due to formation of chromophore (DTNB + thiocholine) was measured at 37 °C using a wavelength of 412 nm during a period of 10 min, using a spectrophotometer (SpectraMax, Molecular Devices, UK).
AChE activity was expressed as enzyme activity (percent of control). […]
In general terms: In Ellman's method for cholinesterases, released thiocholine reacts with DTNB.

AChE, sequence (P22303 32-614): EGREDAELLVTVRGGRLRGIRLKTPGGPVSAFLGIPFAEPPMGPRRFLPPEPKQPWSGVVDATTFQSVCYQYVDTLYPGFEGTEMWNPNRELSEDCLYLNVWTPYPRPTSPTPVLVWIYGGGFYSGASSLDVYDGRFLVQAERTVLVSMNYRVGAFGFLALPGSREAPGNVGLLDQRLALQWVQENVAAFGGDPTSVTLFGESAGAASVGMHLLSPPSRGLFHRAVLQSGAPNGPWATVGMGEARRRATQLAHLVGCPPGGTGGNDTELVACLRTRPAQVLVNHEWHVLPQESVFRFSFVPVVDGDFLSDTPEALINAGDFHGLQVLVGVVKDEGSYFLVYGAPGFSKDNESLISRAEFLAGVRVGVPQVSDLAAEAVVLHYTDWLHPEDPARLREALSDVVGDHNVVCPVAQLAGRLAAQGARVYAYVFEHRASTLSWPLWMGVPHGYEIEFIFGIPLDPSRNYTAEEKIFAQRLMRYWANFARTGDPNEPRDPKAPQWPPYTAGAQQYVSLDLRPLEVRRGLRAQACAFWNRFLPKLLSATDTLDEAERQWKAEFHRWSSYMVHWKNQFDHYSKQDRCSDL

For the compound `CCCSP(=O)(OCC)Oc1ccc(Br)cc1Cl` (stereo not drawn) [profenofos, O-(4-bromo-2-chlorophenyl) O-ethyl S-propyl phosphorothioate], in “in vitro” (human liver cytosol), the Vmax is reported as 1.1 nmol/min/mg cytosolic protein and the Km worked out at 1.4 µM. Further, in “in vitro” (human liver microsomes), the Vmax was 1.2 nmol/min/mg microsomal protein and the Km was 6.9 µM. In the data set “in vitro” (human plasma), the Vmax was 0.99 nmol/min/mg plasma protein and the Michaelis-Menten constant (Km) is 158 µM. In addition, in “in vitro” (human vs rat liver cytosol), the “Catalytic efficiency, fold lower for human than rat liver cytosol” value is listed as 3.8 fold; the “Km, fold higher for human than rat liver cytosol” value came to 4.1 fold; the “Vmax, fold higher for human than rat liver cytosol” value worked out at 1.1 fold. In “in vitro” (human vs rat liver microsomes), the “Catalytic efficiency, fold lower in human than rat liver microsomes” value was 6.5 fold; the “Km, fold lower in human than rat liver microsomes” value came to 1.2 fold; the “Vmax, fold lower in human than rat liver microsomes” value amounted to 7.7 fold. In the data set “in vitro” (human vs rat plasma), the “Catalytic efficiency, fold lower for human than rat plasma” value is 32 fold; the “Km, fold higher for human than rat plasma” value worked out at 44 fold; the “Vmax, fold higher for human than rat plasma” value amounted to 1.5 fold. The LD50 in the data set with rat was 358 to 1178 mg/kg. In addition, the ARfD in the data set with brain cholinesterase is recorded as 0.005 mg/kg bw. Moreover, at AChE, the IC50 turned out to be 0.302 µM.

These data come from PMC8032624, “Prediction of dose-dependent in vivo acetylcholinesterase inhibition by profenofos in rats and humans using physiologically based kinetic (PBK) modeling-facilitated reverse dosimetry” (Archives of Toxicology, 2021).
